ChEMBL document CHEMBL1121778, “5,7-Dihydroxy-2-aminotetralin derivatives: synthesis and assessment of dopaminergic and adrenergic actions” (1981)
Active and inactive are the calls of the source. The calls are words filed in the database; no cut-off is given here.

Experiments:
Felis catus [1] = assay: Compound was tested for the inhibition of cat cardioaccelerator nerve stimulation; […]; assay type: functional, organism-based
Felis catus [2] = assay: Percentage change in arterial pressure of the cat on intravenous administration of 0.33 umol/kg of the compound.; assay type: functional, Artery
Felis catus [3] = assay: Change in heart rate(beats/min) of the cat on intravenous administration of 0.99 umol/kg of the compound.; assay type: functional
Felis catus [4] = assay: Change in heart rate(beats/min) of the cat on intravenous administration of 0.11 umol/kg of the compound.; assay type: functional
Felis catus [5] = assay: Percentage change in arterial pressure of the cat on intravenous administration of 0.11 umol/kg of the compound.; assay type: functional, Artery
Felis catus [6] = assay: Percentage change in arterial pressure of the cat on intravenous administration of 0.99 umol/kg of the compound.; assay type: functional, Artery
Felis catus [7] = assay: Change in heart rate(beats/min) of the cat on intravenous administration of 0.33 umol/kg of the compound.; assay type: functional
Canis familiaris [8] = assay: Compound was tested for emesis(active expulsion of fluid or solid matter)in dog at 2 umol/kg sc; No emesis produced; assay type: functional, organism-based; conditions: Canis lupus familiaris
Canis familiaris [9] = assay: Compound was tested for increase in renal blood flow in dog anesthetized with sodium pentobarbitol (30 mg/kg, iv) and systemic blood pressure and heart rate were recorded; Inactive at 2 umol/kg; assay type: functional, organism-based; conditions: Canis lupus familiaris
Felis catus [10] = assay: Compound was tested for the inhibition of cat cardioaccelerator nerve stimulation; Inactive at 2 umol/kg iv; assay type: functional, organism-based
Felis catus [11] = assay: change in heart rate(beats/min) of the cat on intravenous administration of 0.38 umol/kg of the compound.; assay type: functional
Felis catus [12] = assay: %change in arterial pressure of the cat on intravenous administration of 0.38 umol/kg of the compound.; assay type: functional, Artery
Felis catus [13] = assay: %change in arterial pressure of the cat on intravenous administration 0.115 umol/kg of the compound.; assay type: functional, Artery
Felis catus [14] = assay: %change in arterial pressure of the cat on intravenous administration of 0.038 umol/kg the compound.; assay type: functional, Artery
Felis catus [15] = assay: change in heart rate(beats/min) of the cat on intravenous administration of 0.115 umol/kg of the compound.; assay type: functional
Felis catus [16] = assay: change in heart rate(beats/min) of the cat on intravenous administration 0.038 umol/kg of the compound.; assay type: functional
Felis catus [17] = assay: Percentage change in arterial pressure of the cat on intravenous administration of 0.033 umol/kg of the compound.; assay type: functional, Artery
Felis catus [18] = assay: Change in heart rate(beats/min) of the cat on intravenous administration of 0.033 umol/kg of the compound.; assay type: functional
Felis catus [19] = assay: Percentage change in arterial pressure of the cat on intravenous administration of 0.01 umol/kg of the compound.; assay type: functional, Artery
Canis familiaris [20] = species on record: Canis familiaris; assay: Compound was tested for emesis(active expulsion of fluid or solid matter)in dog; assay type: functional; conditions: Canis lupus familiaris
Felis catus [21] = species on record: Felis catus; assay: Potency relative to apomorphine.; assay type: functional
Felis catus [22] = species on record: Felis catus; assay: Compound was tested for the inhibition of cat cardioaccelerator nerve stimulation; assay type: functional
Felis catus [23] = assay: Change in heart rate(beats/min) of the cat on intravenous administration of 0.10 umol/kg of the compound.; assay type: functional
Felis catus [24] = assay: Change in heart rate(beats/min) of the cat on intravenous administration of 0.01 umol/kg of the compound.; assay type: functional
Felis catus [25] = assay: Percentage change in arterial pressure of the cat on intravenous administration of 0.10 umol/kg of the compound.; assay type: functional, Artery
Felis catus [26] = assay: Percentage change in arterial pressure of the cat on intravenous administration of 0.003 umol/kg of the compound.; assay type: functional, Artery
Felis catus [27] = assay: Change in heart rate(beats/min) of the cat on intravenous administration of 0.009 umol/kg of the compound.; assay type: functional
Felis catus [28] = assay: Change in heart rate(beats/min) of the cat on intravenous administration of 0.003 umol/kg of the compound.; assay type: functional
Felis catus [29] = assay: Percentage change in arterial pressure of the cat on intravenous administration of 0.009 umol/kg of the compound.; assay type: functional, Artery
Felis catus [30] = species on record: Felis catus; assay: Compound was tested for the inhibition of cat cardioaccelerator nerve stimulation, activity expressed as ED50.; assay type: functional
Canis familiaris [31] = species on record: Canis familiaris; assay: Compound was tested for emesis(active expulsion of fluid or solid matter)in dog, activity expressed as ED50.; assay type: functional; conditions: Canis lupus familiaris
Felis catus [32] = assay: Percentage change in arterial pressure of the cat on intravenous administration of 0.032 umol/kg of the compound.; assay type: functional, Artery
Felis catus [33] = assay: Percentage change in arterial pressure of the cat on intravenous administration at 0.008 umol/kg; assay type: functional, Artery
Felis catus [34] = assay: Change in heart rate(beats/min) of the cat on intravenous administration at 0.008 umol/kg; assay type: functional
Felis catus [35] = species on record: Felis catus; assay: Compound was tested for the inhibition of cat cardioaccelerator nerve stimulation,; assay type: functional
Felis catus [36] = assay: Percentage change in arterial pressure of the cat on intravenous administration of 0.016 umol/kg of the compound.; assay type: functional, Artery
Felis catus [37] = assay: Change in heart rate(beats/min) of the cat on intravenous administration of 0.016 umol/kg of the compound.; assay type: functional
Felis catus [38] = assay: Percentage change in arterial pressure of the cat on intravenous administration of 0.1 uM/kg of the compound.; assay type: functional, Artery
Felis catus [39] = assay: Percentage change in arterial pressure of the cat on intravenous administration of 0.03 umol/kg of the compound.; assay type: functional, Artery
Felis catus [40] = assay: Change in heart rate(beats/min) of the cat on intravenous administration of 0.1 uM/kg of the compound.; assay type: functional
Felis catus [41] = assay: Change in heart rate(beats/min) of the cat on intravenous administration of 0.03 umol/kg of the compound.; assay type: functional
Felis catus [42] = assay: Percentage change in arterial pressure of the cat on intravenous administration of 1.09 umol/kg of uM/kg of the compound.; assay type: functional, Artery
Felis catus [43] = assay: Change in heart rate(beats/min) of the cat on intravenous administration of 1.09 umol/kg of the compound.; assay type: functional
Felis catus [44] = assay: Percentage change in arterial pressure of the cat on intravenous administration of 0.36 umol/kg of the compound.; assay type: functional, Artery
Felis catus [45] = assay: Change in heart rate(beats/min) of the cat on intravenous administration of 0.36 umol/kg the compound.; assay type: functional

## Br.CC(C)NC1CCc2c(O)cc(O)cc2C1 (centres undefined)
Felis catus [1]
  ED50: inactive
Felis catus [2]
  Change: 19.7%
Felis catus [3]
  Heart rate: 14.4 beats min-1
Felis catus [4]
  Heart rate: 3.2 beats min-1
Felis catus [5]
  Change: 16.9%
Felis catus [6]
  Change: 25.2%
Felis catus [7]
  Heart rate: 7.7 beats min-1
Canis familiaris [8]
  ED50: inactive
Canis familiaris [9]
  Increase: inactive

## Br.NC1CCc2c(O)cc(O)cc2C1 (centres undefined)
Felis catus [10]
  ED50: inactive
Felis catus [11]
  Heart rate: 17.6 beats min-1
Canis familiaris [8]
  ED50: No emesis produced
Felis catus [12]
  Change: 30.5%
Felis catus [13]
  Change: 21.6%
Felis catus [14]
  Change: 19.7%
Canis familiaris [9]
  Increase: inactive
Felis catus [15]
  Heart rate: 3.6 beats min-1
Felis catus [16]
  Heart rate: 0 beats min-1

## Br.CCNC1CCc2c(O)cc(O)cc2C1 (centres undefined)
Felis catus [17]
  Change: -18.5%
Felis catus [18]
  Heart rate: -10.6 beats min-1
Felis catus [19]
  Change: -6.3%
Canis familiaris [20]
  ED50: 0.36 µmol/kg
Felis catus [21]
  Relative potency: 1.04
Felis catus [22]
  ED50: 0.04 µmol/kg
Felis catus [23]
  Heart rate: -6 beats min-1
Felis catus [24]
  Heart rate: -6.6 beats min-1
Canis familiaris [9]
  Increase: inactive
Felis catus [25]
  Change: -19.6%

## Br.CCN(CC)C1CCc2c(O)cc(O)cc2C1 (centres undefined)
Felis catus [17]
  Change: -25%
Felis catus [26]
  Change: -8.7%
Felis catus [18]
  Heart rate: -25 beats min-1
Felis catus [27]
  Heart rate: -23 beats min-1
Felis catus [28]
  Heart rate: -2.1 beats min-1
Felis catus [21]
  Relative potency: 1.4
Felis catus [22]
  ED50: 0.024 µmol/kg
Felis catus [29]
  Change: -23%
Canis familiaris [9]
  Increase: inactive

## Br.CCCN(CCC)C1CCc2c(O)cc(O)cc2C1 (centres undefined)
Felis catus [17]
  Change: -27.2%
Felis catus [26]
  Change: -12.2%
Felis catus [30]
  ED50: 0.035 µmol/kg
Felis catus [18]
  Heart rate: -5.6 beats min-1
Felis catus [27]
  Heart rate: -4.8 beats min-1
Felis catus [28]
  Heart rate: -3.6 beats min-1
Felis catus [21]
  Relative potency: 0.95
Felis catus [29]
  Change: -17.2%
Canis familiaris [9]
  Increase: inactive

## CN1CCc2cccc3c2[C@H]1Cc1ccc(O)c(O)c1-3 [APOMORPHINE]
Canis familiaris [31]
  ED50: 0.142 µmol/kg
Felis catus [32]
  Change: -18.2%
Felis catus [33]
  Change: -9.9%
Felis catus [21]
  Relative potency: 1
Felis catus [34]
  Heart rate: -4.3 beats min-1
Felis catus [35]
  ED50: 0.022 µmol/kg
Felis catus [36]
  Change: -11.5%
Felis catus [37]
  Heart rate: -6.5 beats min-1

## Br.CN(C)C1CCc2c(O)cc(O)cc2C1 (centres undefined)
Felis catus [38]
  Change: 23.2%
Felis catus [39]
  Change: 8%
Felis catus [40]
  Heart rate: 12.8 beats min-1
Felis catus [19]
  Change: 4.1%
Felis catus [21]
  Relative potency: 1.45
Felis catus [22]
  ED50: 0.021 µmol/kg
Felis catus [41]
  Heart rate: 0.6 beats min-1
Felis catus [24]
  Heart rate: 0 beats min-1

## Br.CNC1CCc2c(O)cc(O)cc2C1 (centres undefined)
Felis catus [10]
  ED50: inactive
Felis catus [42]
  Change: 84.2%
Felis catus [43]
  Heart rate: 44 beats min-1
Felis catus [44]
  Change: 49.7%
Felis catus [45]
  Heart rate: 26.7 beats min-1
Canis familiaris [8]
  ED50: No emesis produced
Canis familiaris [9]
  Increase: inactive
